Values joined by “and” are separate entries in the source; they are usually repeats but may differ in a detail not shown here. Identical values can stand only once. Like-named read-outs stand apart in the source and are kept apart here.
What was measured:
DENV-2 RL strain = assay: Delayed-treatment study (therapeutic setting); type: in vivo, AG129 mice; details: JNJ-1802 30 mg/kg, start treatment day 5 p.i., blood day 14, individual mice
TOX-MT4LTRLUC = type: cell-based; details: human, MT4LTRLUC cells
Text: Supplement 41586_2023_5790_MOESM14_ESM.xlsx, sheet "Ext. Data Table 1" | column: Mean

[1] = ATPLite cell viability assay; type: cell-based; details: human, Huh-7 cells; Huh-7, n=1
Procedure: In parallel, the toxicity was measured using an ATPLite cell viability luminescence assay (PerkinElmer). The assays were performed in three different cell types (Vero, Huh-7 and THP-1/DC-SIGN) as described in ref. [3] to exclude cell-specific activity of the compound.

DENV-3 G5 Brazil = type: cell-based; details: T108A in NS4B
DENV-1 G4 45AZ5 = assay: DENV-1/45AZ5 antiviral assay RT-qPCR; type: cell-based
Procedure: A total of 20 DENV strains, representing the available genotypes within the four DENV serotypes, were used in the in vitro genotype panel, from which 19 viruses were described previously in ref. [3] and one additional virus, DENV-1/45AZ5 (ref. [54]), was added.
A potential toxic effect on host cells was tested in parallel, while omitting virus infection, using the MTS/PMS method (Promega) for Vero cells, or by high-content imaging for C6/36 cells, as described previously. […] RT–qPCR data were analysed using the QuantStudio 12K Flex software (v.1.2.3) or SDS v.1.2 Applied Biosystems software. Inhibition values for antiviral molecules were plotted using KaleidaGraph plotting software (v.4.03, Synergy Software).

[2] = test system: NS4A-2K-NS4B precursor cleavage; assay: microbe, parasite or virus in culture; type: cell-based, DENV-2
[3] = rhesus monkey, in vivo
HIV-1 IIIB = assay: microbe, parasite or virus in culture; type: cell-based; details: Human immunodeficiency virus 1, IIIB, MAGI-CCR5
in vivo = assay: in vivo; parameters: species or system rhesus macaques; details: both sexes, Indian-strain, rhesus monkey, po, 6 mg/kg
Text: WRAIR is fully accredited by AAALAC International.

**Q.** With `COc1cc(N[C@H](C(=O)c2c[nH]c3ccc(OC(F)(F)F)cc23)c2ccc(Cl)cc2OC)cc(S(C)(=O)=O)c1` [JNJ-1802] as the compound, how does the “Viral (load), log10 of the column before (head empty)” value (DENV-2 RL strain) read?
**A.** The value was 3.1169.

**Q.** And the “Viral (load; head cut off)” value (DENV-2 RL strain)?
**A.** The value was 1.31E+03.

**Q.** What about the CC50 (TOX-MT4LTRLUC) of the same compound?
**A.** The CC50 was 8140 nM.

**Q.** What about the CC90 (TOX-MT4LTRLUC) of the same compound?
**A.** Its CC90 is 21200 nM.

**Q.** What about the CC50 [1] of the same compound?
**A.** Its CC50 is 12700 nM.

**Q.** And the EC50 (DENV-3 G5 Brazil)?
**A.** The EC50 was 1.8 ± 1.4 nM.

**Q.** What about the EC90 (DENV-3 G5 Brazil) of the same compound?
**A.** Its EC90 is 3.8 ± 1.1 nM.

**Q.** And the EC50 (DENV-1 G4 45AZ5; DENV-qPCR-VeroECACC-deltaCt-DENV-1/45AZ5_pre-seeding, single experiments (EXPERIMENT_ID), listed as 64281802-AAA, read-out: EC50 (µM) result_value, DENV-1/45AZ5)?
**A.** The EC50 was 0.0016 µM.

**Q.** And the EC90 (DENV-1 G4 45AZ5; Dengue virus, DENV1)?
**A.** Its EC90 is 4.18 ± 0.71 nM.

**Q.** What about the EC50 (DENV-1 G4 45AZ5; Dengue virus, DENV1, DENV-qPCR-VeroECACC-deltaCt-DENV-1/45AZ5_pre-seeding, mean of 6 results, read-out: EC50 (µM) Mean, DENV-1/45AZ5) of the same compound?
**A.** Its EC50 is 0.00152 µM.

**Q.** And the EC50 (DENV-1 G4 45AZ5; Dengue virus, DENV1, DENV-qPCR-VeroECACC-deltaCt-DENV-1/45AZ5_pre-seeding, single experiments (EXPERIMENT_ID), read-out: EC50 (µM) result_value, DENV-1/45AZ5)?
**A.** The EC50 was 0.0015 µM.

**Q.** What about the EC50 ([2]; Dengue virus, read-out: EC50 2k-4B Input, Mean, WT) of the same compound?
**A.** Its EC50 is 1.72 nM.

**Q.** And the “2K-NS4B proportion in lysate” value ([2]; L94F, 10 nM)?
**A.** The value was 18.25% and 11.99% and 16.55%.

**Q.** What about the “2K-NS4B proportion in lysate” value ([2]; L94F, 500 nM) of the same compound?
**A.** Its value is 4.03% and 6.25% and 1.49%.

**Q.** What about the “NS4A-2K-NS4B proportion in lysate” value ([2]; L94F, 500 nM) of the same compound?
**A.** Its value is 75.65% and 50.22% and 78.28%.

**Q.** And the “2K-NS4B proportion in lysate” value ([2]; L94F, 1000 nM)?
**A.** The value was 3.64% and 2.91% and 2.22%.

**Q.** What about the “NS4A-2K-NS4B proportion in lysate” value ([2]; L94F, 1000 nM) of the same compound?
**A.** The value was 77.84% and 43.16% and 74.46%.

**Q.** And the EC50 ([2]; L94F, read-out: EC50 2k-4B Input, Mean)?
**A.** The EC50 was 108 nM.

**Q.** And the “2K-NS4B proportion in lysate” value ([2]; T108I, 0.5 nM)?
**A.** The value was 23.11% and 13.79% and 13.87%.

**Q.** And the “NS4A-2K-NS4B proportion in lysate” value ([2]; T108I, 0.5 nM)?
**A.** Its value is 44.71% and 43.02% and 68.40%.

**Q.** What about the “NS4A-2K-NS4B proportion in lysate” value ([2]; T108I, 1 nM) of the same compound?
**A.** Its value is 72.39% and 47.37% and 49.13%.

**Q.** What about the “2K-NS4B proportion in lysate” value ([2]; T108I, 5 nM) of the same compound?
**A.** Its value is 9.35% and 15.53% and 10.95%.

**Q.** And the “NS4A-2K-NS4B proportion in lysate” value ([2]; T108I, 5 nM)?
**A.** The value was 71.83% and 55.33% and 51.65%.

**Q.** And the “NS4B proportion in lysate” value ([2]; T108I, 5 nM)?
**A.** The value was 18.83% and 29.14% and 37.41%.

**Q.** What about the “2K-NS4B proportion in lysate” value ([2]; T108I, 10 nM) of the same compound?
**A.** Its value is 5.10% and 8.23% and 10.83%.

**Q.** And the “NS4A-2K-NS4B proportion in lysate” value ([2]; T108I, 10 nM)?
**A.** Its value is 71.88% and 68.85% and 55.44%.

**Q.** And the “NS4B proportion in lysate” value ([2]; T108I, 10 nM)?
**A.** The value was 23.02% and 22.91% and 33.72%.

**Q.** What about the “2K-NS4B proportion in lysate” value ([2]; T108I, 50 nM) of the same compound?
**A.** The value was 3.79% and 3.62% and 3.12%.

**Q.** And the “NS4A-2K-NS4B proportion in lysate” value ([2]; T108I, 50 nM)?
**A.** The value was 72.18% and 59.64% and 51.99%.

**Q.** What about the “NS4B proportion in lysate” value ([2]; T108I, 50 nM) of the same compound?
**A.** The value was 24.02% and 36.74% and 44.89%.

**Q.** What about the EC50 ([2]; T108I, single replicates, read-out: EC50 (2k-4B), Input) of the same compound?
**A.** The EC50 was 6.08 nM and 6.88 nM and 20.9 nM.

**Q.** And the EC50 ([2]; T108I, read-out: EC50 2k-4B Input, Mean)?
**A.** The EC50 was 11.3 nM.

**Q.** And the “2K-NS4B proportion in lysate” value ([2]; V91A, 10 nM)?
**A.** The value was 18.41% and 10.69% and 19.20%.

**Q.** What about the “2K-NS4B proportion in lysate” value ([2]; V91A, 50 nM) of the same compound?
**A.** The value was 12.06% and 15.08% and 7.29%.

**Q.** And the “2K-NS4B proportion in lysate” value ([2]; V91A, 100 nM)?
**A.** The value was 6.22% and 11.02% and 2.95%.

**Q.** What about the “2K-NS4B proportion in lysate” value ([2]; V91A, 500 nM) of the same compound?
**A.** The value was 2.16% and 3.56% and 1.47%.

**Q.** And the “NS4A-2K-NS4B proportion in lysate” value ([2]; V91A, 500 nM)?
**A.** The value was 73.60% and 43.02% and 80.18%.

**Q.** What about the “2K-NS4B proportion in lysate” value ([2]; V91A, 1000 nM) of the same compound?
**A.** Its value is 2.06% and 2.88% and 1.78%.

**Q.** What about the EC50 ([2]; V91A, single replicates, read-out: EC50 (2k-4B), Input) of the same compound?
**A.** The EC50 was 44.9 nM and 134 nM and 55.6 nM.

**Q.** And the EC50 ([2]; V91A, read-out: EC50 2k-4B Input, Mean)?
**A.** Its EC50 is 78 nM.

**Q.** And the “2K-NS4B proportion in lysate” value ([2]; WT, 0.5 nM)?
**A.** The value was 20.47% and 12.95% and 13.02%.

**Q.** And the “NS4A-2K-NS4B proportion in lysate” value ([2]; WT, 0.5 nM)?
**A.** Its value is 48.09% and 36.63% and 65.93%.

**Q.** What about the “2K-NS4B proportion in lysate” value ([2]; WT, 1 nM) of the same compound?
**A.** Its value is 5.60% and 9.33% and 12.10%.

**Q.** And the “NS4A-2K-NS4B proportion in lysate” value ([2]; WT, 1 nM)?
**A.** The value was 66.81% and 44.14% and 43.57%.

**Q.** And the “NS4B proportion in lysate” value ([2]; WT, 1 nM)?
**A.** Its value is 27.59% and 46.53% and 44.33%.

**Q.** What about the “2K-NS4B proportion in lysate” value ([2]; WT, 5 nM) of the same compound?
**A.** The value was 3.71% and 6.95% and 6.88%.

**Q.** What about the “NS4A-2K-NS4B proportion in lysate” value ([2]; WT, 5 nM) of the same compound?
**A.** Its value is 60.94% and 43.36% and 51.87%.

**Q.** What about the “NS4B proportion in lysate” value ([2]; WT, 5 nM) of the same compound?
**A.** The value was 35.35% and 49.69% and 41.25%.

**Q.** And the “2K-NS4B proportion in lysate” value ([2]; WT, 10 nM)?
**A.** Its value is 3.62% and 6.23% and 4.49%.

**Q.** What about the “NS4A-2K-NS4B proportion in lysate” value ([2]; WT, 10 nM) of the same compound?
**A.** The value was 59.94% and 47.30% and 50.84%.

**Q.** What about the “NS4B proportion in lysate” value ([2]; WT, 10 nM) of the same compound?
**A.** Its value is 36.44% and 46.47% and 44.67%.

**Q.** And the “2K-NS4B proportion in lysate” value ([2]; WT, 50 nM)?
**A.** Its value is 5.23% and 6.22% and 5.06%.

**Q.** And the “NS4A-2K-NS4B proportion in lysate” value ([2]; WT, 50 nM)?
**A.** Its value is 53.55% and 57.44% and 58.39%.

**Q.** What about the “NS4B proportion in lysate” value ([2]; WT, 50 nM) of the same compound?
**A.** The value was 41.22% and 36.34% and 36.55%.

**Q.** What about the EC50 ([2]; read-out: EC50 (2k-4B), Input, WT, single replicates) of the same compound?
**A.** Its EC50 is 0.491 nM and 0.62 nM and 4.06 nM.

**Q.** What about the adverse effects [3] of the same compound?
**A.** Its adverse effects is “No adverse effects were observed”.

**Q.** And the weight loss [3]?
**A.** Its weight loss is “not attributable to treatment with JNJ-1802”.

**Q.** What about the EC50 (HIV-1 IIIB) of the same compound?
**A.** Its EC50 is 1600 nM.

**Q.** And the Tmax (in vivo)?
**A.** Its Tmax is 8 h.
